The values that follow come from paper PMC12325182, “Discovery of novel and potent celastrol derivatives as PRDX1 inhibitors for cancer therapy through structure-based virtual screening” (Frontiers in Pharmacology, 2025).

Like-named read-outs stand apart in the source and are kept apart here. Some results are limits rather than exact numbers.

For assay [1], the system named is BEAS-2B normal lung cells. The assay is described as follows: MTT assay. The class given is cell-based. The following applies: Homo sapiens, 72 h. The protocol: (§1) Cells were seeded in 96-well plates at 5 ×10^4 cells/well and cultured overnight at 37°C under 5% CO2. After medium removal, cells were treated with serially diluted compounds (0.04–163.84 μM) or vehicle control (0.1% DMSO) and incubated for 72 h. Subsequently, 20 μL of MTT solution (5 mg/mL) was added to each well, and incubation was continued for 4 h. Add 150 μL of DMSO and shake for 10 min to fully dissolve the crystal. Finally, the absorbance was measured at 570 nm using a microplate reader. Cell viability was calculated as (ODcompound - ODblank)/(ODvehicle - ODblank) × 100%. The half inhibitory concentration (IC50) was calculated from the dose-response curve using Prism 8.0 software. Three independent replicate experiments were performed.

Another assay concerns A549 lung cancer cells. The experiment in a line: MTT assay. Conditions: Homo sapiens, read-out: IC50 (μM) A549. In kind it is cell-based. How it is done: as §1
Assay [2] addresses T1, PRDX1 (Homo sapiens, UniProt Q06830).
T1 sequence (Q06830 1-199): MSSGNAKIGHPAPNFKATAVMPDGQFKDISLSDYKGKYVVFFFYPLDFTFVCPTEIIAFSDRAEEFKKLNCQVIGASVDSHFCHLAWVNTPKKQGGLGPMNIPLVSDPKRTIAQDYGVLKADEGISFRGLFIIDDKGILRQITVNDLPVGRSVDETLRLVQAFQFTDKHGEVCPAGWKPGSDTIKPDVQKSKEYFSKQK
The assay is described as follows: PRDX1 inhibition assay. The class given is biochemical. How it is done: The cells were purchased from the American Type Culture Collection (ATCC) (Manassas, VA, United States). Cells were cultured in RPMI-1640 medium supplemented with 10% FBS, 50 units/mL penicillin, and 50 μg/mL streptomycin, and maintained at 37°C in a 5% CO2 humidified culture environment. CPs 1-5 were purchased from WuXi AppTec. Human PRDX1 proteins were purchased from Abcam (Cambridge, MA, United States).
First, […] buffer (20 mM HEPES, 5 mM EDTA, 5 μM cofactor A, 2 μM cofactor B, and 300 μM NADPH) was added to a 96-well plate. The test compounds at the designated concentration (0.02–2 nM, with 1.5-fold dilution) were incubated with PRDX1 at 37°C for 25 min, and then the co-incubated mixture was added to each well to a final concentration of 200 nM PRDX1. Finally, 200 μM H2O2 was added to each well to initiate the enzyme reaction cycle. The oxidation of NADPH was determined by the absorption value at 340 nm. Read plate values for 90 s for one cycle and repeat for 20 cycles. The positive control (celastrol, concentrations 0.06–64 μM) was tested in parallel under identical experimental conditions. Three independent replicate experiments were performed.

Assay [3] concerns the target T1, PRDX1. The experiment in a line: MST assay. The class given is binding. How it is done: The MST assays were carried out in a buffer composed of 50 mM Tris, 200 mM NaCl, and 0.1% (v/v) TWEEN20. PRDX1 was tagged with the MO-L011 protein labeling kit (RED-NHS second Generation). The diluted compounds were combined with the tagged PRDX1 protein and allowed to stand at room temperature for 5 minutes. Subsequently, the reaction mixture was loaded into capillaries, and measurements were taken using a Monolith NT.115 instrument.

The subject of assay [4] is HepG2 (hepatocellular carcinoma cells). The experiment in a line: MTT assay. Conditions: Homo sapiens, HepG2, 72 h, read-out: IC50 (μM) HepG2. In kind it is cell-based. How it is done:
as §1
(In general: Tetrazolium assays rely on reduction of a dye to a coloured formazan, in cell work by metabolically active cells.)

Assay [5] deals with MCF-7 (breast adenocarcinoma cells). The assay is described as follows: MTT assay. In kind it is cell-based. Conditions: Homo sapiens, MCF7, 72 h, read-out: IC50 (μM) MCF-7. The protocol: as §1
Assay [6] concerns HaCaT (immortalised keratinocytes). The assay is described as follows: MTT assay. In kind it is cell-based. Conditions: Homo sapiens, 72 h, normal cells, mean ± SD, n = 3. The protocol: as §1
A further assay has as its system LO2 (normal liver cells). The experiment in a line: MTT assay. The class given is cell-based. Conditions: Homo sapiens, 72 h, read-out: IC50 (μM) LO2. The protocol: as §1
For assay [7], the system named is HEK293 (embryonic kidney cells). The experiment in a line: MTT assay. The class given is cell-based. Conditions: Homo sapiens, HEK293, 72 h, read-out: IC50 (μM) HEK293. How it is done:
as §1

The mark [8] stands for this setting: MTT, normal lung cells, mean ± SD, n = 3, read-out: IC50 (μM) BEAS-2B.
Setting [9] is: A549, MTT, 72 h, mean ± SD, n = 3.
Where [10] appears, read: mean ± SD, n = 3, read-out: PRDX1 (IC50).

As to `C=C(/C=C(C)\C=C\C(=O)CC1=CC2=CC=C3C(CC[C@@]4(C)C5C[C@](C)(C(=O)NCc6cccc(CC(O)O)c6)CC[C@]5(C)CC[C@]34C)C2=CC1=O)CO` (stereo partly drawn) [CP5], the IC50 in assay [1] (setting [8]) is more than 100 µM; in the assay on A549 lung cancer cells (setting [9]), 0.68 ± 0.06 µM; at PRDX1 [2] (setting [10]), 0.36 ± 0.02 nM.

The compound `CC1=C(O)C(=O)C=C2C1=CC=C1[C@@]2(C)CC[C@@]2(C)[C@@H]3C[C@](C)(C(=O)O)CC[C@]3(C)CC[C@]12C` [Celastrol, celastrol] had a Kd on PRDX1 [3] of 320 ± 20 nM. The IC50 in assay [4] worked out at 1.28 ± 0.05 µM; in [5] it was 1.31 ± 0.06 µM; in [6], 17.4 ± 0.54 µM; in [1] (read-out: IC50 (μM) BEAS-2B), 0.45 ± 0.03 µM; with LO2 (normal liver cells), 24 ± 0.69 µM; in the assay with A549 lung cancer cells (A549, 72 h) it was 1.24 ± 0.08 µM. In addition, the values for the IC50 (in assay [7]; against PRDX1 [2]) were 5.76 ± 0.12 µM and 510 ± 40 nM, respectively.

As for `Cc1ncc(CNC(=O)[C@]2(C)CC[C@]3(C)CC[C@]4(C)C5=CC=C6C=C(CC(=O)/C=C/c7cccc(CO)c7)C(=O)C=C6C5CC[C@@]4(C)C3C2)nc1C(C)C(O)O` (stereo partly drawn) [CP3], the IC50 in assay [1] (setting [8]) was more than 100 µM; in the assay with A549 lung cancer cells (setting [9]), 0.57 ± 0.05 µM; at PRDX1 [2] (setting [10]) it was 0.25 ± 0.01 nM.

With `C[C@@]1(C(=O)NCc2cccc(CC(O)O)c2)CC[C@]2(C)CC[C@]3(C)C4=CC=C5C=C(CC(=O)/C=C/c6cccc(CO)c6)C(=O)C=C5C4CC[C@@]3(C)C2C1` (stereo partly drawn) [CP4], the IC50 was more than 100 µM in assay [1] (setting [8]), 0.63 ± 0.04 µM in the assay on A549 lung cancer cells (setting [9]) and 0.31 ± 0.03 nM at PRDX1 [2] (setting [10]).

Turning to `CC1=C(CC(=O)/C=C/C2=CC(CO)=CC2)C(=O)C=C2C1=CC=C1[C@@]2(C)CC[C@@]2(C)C3C[C@](C)(C(=O)NCc4cccc(C(O)C(O)O)c4)CC[C@]3(C)CC[C@]12C` (stereo partly drawn) [CP2], the values for the IC50 (in [1] (setting [8]); in the assay on A549 lung cancer cells (setting [9]); at PRDX1 [2] (setting [10])) were more than 100 µM, 0.46 ± 0.03 µM and 0.17 ± 0.02 nM, respectively.

One may read the IC50 as the concentration needed to halve the response being measured. What is called Kd is the concentration at which binding is half-saturated.
